In brackets after ≈: the same amount, converted by molar mass. Like-named read-outs stand apart in the source and are kept apart here.
Assays:
[1] = system: Plasmodium falciparum clone CDC Indochina III (W-2); assay: In vitro inhibition of [3H]hypoxanthine uptake, P. falciparum W-2 clone; format: cell-based; details: Plasmodium falciparum, read-out: IC50 (W-2)
Description: (§1) The in vitro assays were conducted by using a modification of the semiautomated microdilution technique of Desjardins et al.^11 and Chulay et al.^12 Two strains of Plasmodium falciparum clones, from CDC Indochina III (W-2), CDC Sierra Leone I (D-6). […] These solutions were subsequently serially diluted 2-fold with a Biomek 1000® (Beckman, Fullerton, Calif.) over 11 different concentrations. The parasites were exposed to serial dilutions of each compound for 48 h and incubated at 37° C. with 5% O2, 5% CO2, and 90% N2 prior to the addition of [^3H]hypoxanthine. […] Uptake of [^3H]hypoxanthine was measured with a Packard Topcount scintillation counter. […] The values without parentheses indicate culture in blood serum which more closely resemble conditions in a living animal.
(§2) The numbers associated with both W2 and D6 refer to IC50 values and the units are ng/ml.

[2] = system: Plasmodium falciparum clone CDC Sierra Leone I (D-6); assay: In vitro inhibition of [3H]hypoxanthine uptake, P. falciparum D-6 clone; format: cell-based; details: Plasmodium falciparum, read-out: IC50 (D-6)
Description: as §1, §2

[3] = values in parentheses: culture medium with 10% Albumax I

| SMILES | IC50 [1, 3] | IC50 [2, 3] | IC50 [1] | IC50 [2] |
| --- | --- | --- | --- | --- |
| O=C1c2c(Cl)cccc2-n2c1nc1ccccc1c2=O [Example 9] | 0.403 µg/mL (≈ 1.43 µM) | 0.471 µg/mL (≈ 1.67 µM) | – | – |
| O=C1c2ccc(Cl)cc2-n2c1nc1ncccc1c2=O [Example 22] | 0.263 µg/mL (≈ 0.927 µM) | 0.278 µg/mL (≈ 0.979 µM) | – | – |
| Cc1ccc2nc3n(c(=O)c2c1)-c1ccccc1C3=O [Example 5] | 0.264 µg/mL (≈ 1.01 µM) | 0.313 µg/mL (≈ 1.19 µM) | – | – |
| O=C1c2ccccc2-n2c1nc1c(Br)cc(Br)c(Cl)c1c2=O [Example 38] | 0.203 µg/mL (≈ 0.461 µM) | 0.242 µg/mL (≈ 0.549 µM) | – | – |
| O=C1c2cc(I)ccc2-n2c1nc1c(Br)cc(Br)cc1c2=O [Example 29] | 0.131 µg/mL (≈ 0.245 µM) | 0.149 µg/mL (≈ 0.281 µM) | – | – |
| O=c1c2ccccc2nc2/c(=C/C=C/c3ccccc3)c3ccccc3n12 [Example 67] | 4.42 µg/mL (≈ 12.7 µM) | 4.44 µg/mL (≈ 12.7 µM) | – | – |
| O=c1c2ccccc2nc2sc3ccccc3n12 [Example 2] | 15.6 µg/mL (≈ 61.9 µM) | 12.5 µg/mL (≈ 49.5 µM) | – | – |
| CN1CCN(c2ccc3c(c2)-n2c(nc4ccccc4c2=O)C3=O)CC1 [Example 16] | 1.01 µg/mL (≈ 2.93 µM) | 2.16 µg/mL (≈ 6.24 µM) | – | – |
| Cc1ncc2c(=O)n3c(nc2n1)C(=O)c1cc(I)ccc1-3 [Example 54] | 0.124 µg/mL (≈ 0.318 µM) | 0.0746 µg/mL (≈ 0.191 µM) | – | – |
| CCOC(=O)C(O)(C(=O)OCC)C1c2ccccc2-n2c1nc1ccccc1c2=O (centres unmarked) [Example 65] | 0.154 µg/mL (≈ 0.377 µM) | 0.259 µg/mL (≈ 0.634 µM) | – | – |
| CN(CC(=O)O)c1ccc2c(=O)n3c(nc2c1)C(=O)c1cc(Cl)ccc1-3 [Example 60] | 0.0679 µg/mL (≈ 0.184 µM) | 0.0781 µg/mL (≈ 0.211 µM) | – | – |
| CCOC(=O)C(O)(C(=O)OCC)C1c2cc(F)ccc2-n2c1nc1c(OC)cccc1c2=O (centres unmarked) [Example 76] | 0.16 µg/mL (≈ 0.35 µM) | 0.224 µg/mL (≈ 0.49 µM) | – | – |
| CC(C)(C)OC(=O)N/N=C1/c2ccccc2-n2c1nc1ccccc1c2=O [Example 36] | 4.82 µg/mL (≈ 13.3 µM) | 4.2 µg/mL (≈ 11.6 µM) | – | – |
| Cc1ccc(S(=O)(=O)N/N=C2/c3ccccc3-n3c2nc2ccccc2c3=O)cc1 [Example 25] | 1.99 µg/mL (≈ 4.78 µM) | 1.84 µg/mL (≈ 4.42 µM) | – | – |
| COCc1ccc2c(c1)C(=O)c1nc3ccncc3c(=O)n1-2 [Example 62] | 0.016 µg/mL (≈ 0.0546 µM) | 0.0313 µg/mL (≈ 0.107 µM) | – | – |
| CN1CCN(c2cc3c(cc2F)C(=O)c2nc4cc(F)ccc4c(=O)n2-3)CC1 [Example 20] | 0.734 µg/mL (≈ 1.92 µM) | 1.05 µg/mL (≈ 2.76 µM) | – | – |

| SMILES | IC50 [1, 3] | IC50 [2, 3] | IC50 [1] | IC50 [2] |
| --- | --- | --- | --- | --- |
| CCOC(=O)c1ccc2c(c1)C(=O)c1nc3ccc(I)cc3c(=O)n1-2 [Example 26] | 0.609 µg/mL (≈ 1.37 µM) | 0.589 µg/mL (≈ 1.32 µM) | – | – |
| CCCCCCCCc1ccc2c(c1)C(=O)c1nc3ccncc3c(=O)n1-2 [Example 41] | 0.00766 µg/mL (≈ 0.0212 µM) | 0.0123 µg/mL (≈ 0.0341 µM) | – | – |
| O=C1c2cc(I)ccc2-n2c1nc1ncccc1c2=O [Example 23] | 0.00167 µg/mL (≈ 0.00445 µM) | 0.00397 µg/mL (≈ 0.0106 µM) | – | – |
| Nc1ccc2nc3n(c(=O)c2c1)-c1ccc(F)cc1C3=O [Example 8] | 0.062 µg/mL (≈ 0.22 µM) | 0.062 µg/mL (≈ 0.22 µM) | – | – |
| O=C1c2ccccc2-n2c1nc1ccccc1c2=O [Example 1] | 0.069 µg/mL (≈ 0.278 µM) | 0.069 µg/mL (≈ 0.278 µM) | – | – |
| CCOC(=O)c1nc2ccccc2c(=O)n1-c1ccccc1 [Example 53] | 4.87 µg/mL (≈ 16.6 µM) | 9.01 µg/mL (≈ 30.6 µM) | – | – |
| O=C(N/N=C\c1ccc2c(c1)C(=O)c1nc3ccncc3c(=O)n1-2)c1ccncc1 [Example 88] | 0.177 µg/mL (≈ 0.448 µM) | 0.49 µg/mL (≈ 1.24 µM) | – | – |
| O=C1c2cc(C(O)(C(F)(F)F)C(F)(F)F)ccc2-n2c1nc1ccncc1c2=O [Example 84] | 0.938 µg/mL (≈ 2.26 µM) | 1.71 µg/mL (≈ 4.12 µM) | – | – |
| O=C1/C(=c2\c3ccccc3n3c(=O)c4ccccc4nc23)Nc2ccccc21 [Example 51] | – | – | 8.76 µg/mL (≈ 24.1 µM) | 8.69 µg/mL (≈ 23.9 µM) |
| COc1cccc2c(=O)n3c(nc12)/c(=C/c1ccccc1)c1cc(F)ccc13 [Example 75] | 0.573 µg/mL (≈ 1.55 µM) | 0.534 µg/mL (≈ 1.44 µM) | – | – |
| O=C1c2cc(I)ccc2-n2c1nc1c(O)nc(O)nc1c2=O [Example 32] | 2.59 µg/mL (≈ 6.34 µM) | 3.85 µg/mL (≈ 9.43 µM) | – | – |
| CC1(C)COC(c2ccc3c(c2)C(=O)c2nc4ccncc4c(=O)n2-3)OC1 [Example 81] | 0.0739 µg/mL (≈ 0.203 µM) | 0.11 µg/mL (≈ 0.303 µM) | – | – |
| O=C1c2cc(Cl)ccc2-n2c1nc1ncncc1c2=O [Example 50] | 0.0112 µg/mL (≈ 0.0392 µM) | 0.0442 µg/mL (≈ 0.155 µM) | – | – |
| O=C1c2ccccc2-n2c1nc1nccnc1c2=O [Example 30] | 0.354 µg/mL (≈ 1.42 µM) | 0.5 µg/mL (≈ 2 µM) | – | – |
| O=C1c2ccccc2-n2c1nc1ccncc1c2=O [Example 52] | 0.0647 µg/mL (≈ 0.26 µM) | 0.0733 µg/mL (≈ 0.294 µM) | – | – |

Reference: patent US8012987B2, “Indolo[2,1-b] quinazole-6,12-dione antimalarial compounds and methods of treating malaria therewith” (The United States of America as represented by the …, priority 1998, dated 2011)
